Test results reported in ChEMBL document CHEMBL1122199, “Structure-activity relationships in potentially hallucinogenic N,N-dialkyltryptamines substituted in the benzene moiety” (J Med Chem, 1982).
“And” between values parts separate entries of the source, which are not always exact repeats. Identical values can stand only once.

Legend:
[1] = tested on: Rattus norvegicus; test: The behavior disruption data as percent change in response from drug versus saline at dose 10mg/Kg, expressed as E (efficient); assay type: functional
[2] = Ability to displace [3H]LSD binding to Lysergic acid diethylamide receptor site using 1 uM 5-HT as masking ligand; parameters: species or system Cavia porcellus
[3] = tested on: Rattus norvegicus; test: The behavior disruption data as percent change in response from drug versus saline at dose 1.25 mg/kg, expressed as B/P (burst/premature).; assay type: functional
[4] = biological target: Serotonin (5-HT) receptor; test: Ability to displace [3H]5-HT binding from 5-hydroxytryptamine receptor site using 1 uM LSD as masking ligand; assay type: protein assay, Cavia porcellus
[5] = tested on: Rattus norvegicus; test: The behavior disruption data as percent change in response from drug versus saline at dose 2.5mg/Kg, expressed as E (efficient); assay type: functional
[6] = tested on: Rattus norvegicus; test: The behavior disruption data as percent change in response from drug versus saline at dose 5mg/Kg, expressed as L (Late).; assay type: functional
[7] = tested on: Rattus norvegicus; test: The behavior disruption data as percent change in response from drug versus saline at dose 10 mg/kg, expressed as B/P (burst/premature).; assay type: functional
[8] = Hill coefficient of the compound
[9] = tested on: Rattus norvegicus; test: The behavior disruption data as percent change in response from drug versus saline at dose 10mg/Kg, expressed as L (Late).; assay type: functional
[10] = tested on: Rattus norvegicus; test: The behavior disruption data as percent change in response from drug versus saline at dose 1.25mg/Kg, expressed as L (Late).; assay type: functional
[11] = tested on: Rattus norvegicus; test: The behavior disruption data as percent change in response from drug versus saline at dose 2.5 mg/kg, expressed as B/P (burst/premature).; assay type: functional
[12] = tested on: Rattus norvegicus; test: The behavior disruption data as percent change in response from drug versus saline at dose 5mg/Kg, expressed as E (efficient); assay type: functional
[13] = tested on: Rattus norvegicus; test: The behavior disruption data as percent change in response from drug versus saline at dose 2.5mg/Kg, expressed as L (Late).; assay type: functional
[14] = tested on: Rattus norvegicus; test: The behavior disruption data as percent change in response from drug versus saline at dose 1.25mg/Kg, expressed as E (efficient); assay type: functional
[15] = tested on: Rattus norvegicus; test: The behavior disruption data as percent change in response from drug versus saline at dose 5 mg/kg, expressed as B/P (burst/premature).; assay type: functional
[16] = tested on: Rattus norvegicus; test: The behavior disruption data as percent change in response from drug versus saline at dose 1 mg/kg, expressed as B/P (burst/premature).; assay type: functional
[17] = tested on: Rattus norvegicus; test: The behavior disruption data as percent change in response from drug versus saline at dose 4 mg/kg, expressed as B/P (burst/premature).; assay type: functional
[18] = tested on: Rattus norvegicus; test: The behavior disruption data as percent change in response from drug versus saline at dose 0.5 mg/Kg, expressed as L (Late).; assay type: functional
[19] = tested on: Rattus norvegicus; test: The behavior disruption data as percent change in response from drug versus saline at dose 0.5 mg/kg, expressed as B/P (burst/premature).; assay type: functional
[20] = biological target: Serotonin (5-HT) receptor; test: Ability to displace [3H]5-HT binding to 5-hydroxytryptamine receptor site using 1 uM LSD as masking ligand; assay type: protein assay, Cavia porcellus
[21] = tested on: Rattus norvegicus; test: The behavior disruption data as percent change in response from drug versus saline at dose 2mg/kg, expressed as B/P (burst/premature).; assay type: functional
[22] = tested on: Rattus norvegicus; test: The behavior disruption data as percent change in response from drug versus saline at dose 2mg/Kg, expressed as L (Late).; assay type: functional
[23] = tested on: Rattus norvegicus; test: The behavior disruption data as percent change in response from drug versus saline at dose 4mg/Kg, expressed as L (Late).; assay type: functional
[24] = tested on: Rattus norvegicus; test: The behavior disruption data as percent change in response from drug versus saline at dose 1mg/Kg, expressed as L (Late).; assay type: functional
[25] = tested on: Rattus norvegicus; test: The behavior disruption data as percent change in response from drug versus saline at dose 1mg/Kg, expressed as E (efficient); assay type: functional
[26] = tested on: Rattus norvegicus; test: The behavior disruption data as percent change in response from drug versus saline at dose 2mg/Kg, expressed as E (efficient); assay type: functional
[27] = tested on: Rattus norvegicus; test: The behavior disruption data as percent change in response from drug versus saline at dose 4mg/Kg, expressed as E (efficient); assay type: functional
[28] = tested on: Rattus norvegicus; test: The behavior disruption data as percent change in response from drug versus saline at dose 0.5 mg/Kg, expressed as E (efficient); assay type: functional
[29] = tested on: Rattus norvegicus; test: The behavior disruption data as percent change in response from drug versus saline at dose 0.25mg/Kg, expressed as L (Late).; assay type: functional
[30] = tested on: Rattus norvegicus; test: The behavior disruption data as percent change in response from drug versus saline at dose 0.25mg/Kg, expressed as E (efficient); assay type: functional
[31] = tested on: Rattus norvegicus; test: The behavior disruption data as percent change in response from drug versus saline at dose 0.25 mg/kg, expressed as B/P (burst/premature).; assay type: functional
[32] = tested on: Rattus norvegicus; test: The behavior disruption data as percent change in response from drug versus saline at dose 15 mg/kg, expressed as B/P (burst/premature).; assay type: functional
[33] = tested on: Rattus norvegicus; test: The behavior disruption data as percent change in response from drug versus saline at dose 15mg/Kg, expressed as L (Late).; assay type: functional
[34] = tested on: Rattus norvegicus; test: The behavior disruption data as percent change in response from drug versus saline at dose 15mg/Kg, expressed as E (efficient); assay type: functional
[35] = tested on: Rattus norvegicus; test: The behavior disruption data as percent change in response from drug versus saline at dose 8mg/Kg, expressed as L (Late).; assay type: functional
[36] = tested on: Rattus norvegicus; test: The behavior disruption data was measured as percent change in response from drug versus saline at dose 2 mg/kg, activity expressed as L (Late).; assay type: functional
[37] = tested on: Rattus norvegicus; test: The behavior disruption data as percent change in response from drug versus saline at dose 8 mg/kg, expressed as B/P (burst/premature).; assay type: functional
[38] = tested on: Rattus norvegicus; test: The behavior disruption data as percent change in response from drug versus saline at dose 8mg/Kg, expressed as E (efficient); assay type: functional

CC(C)N(CCc1c[nH]c2cc3c(cc12)OCO3)C(C)C
Change in response [1]: 45%
IC50 [2]: 0.00001 M l-1
Change in response [3]: 1%
IC50 [4]: 0.000933 M l-1
Change in response [5]: 2%
Change in response [6]: 2%
Change in response [7]: 29%
Hill coefficient [8]: 0.642
Change in response [9]: 16%
Change in response [10]: 1%
Change in response [11]: 0%
Change in response [12]: 4%
Change in response [13]: 2%
Change in response [14]: 0%
Change in response [15]: 2%

CSc1ccc2c(CCN(C)C)c[nH]c2c1
Change in response [16]: 8%
IC50 [2]: 7.59e-6 M l-1
Change in response [17]: 34%
Change in response [18]: 4%
Change in response [19]: 4%
IC50 [20]: 0.0000408 M l-1
Change in response [21]: 20%
Change in response [22]: 19%
Hill coefficient [8]: 0.97 and 0.57
Change in response [23]: 14%
Change in response [24]: 4%
Change in response [25]: 13%
Change in response [26]: 30%
Change in response [27]: 48%
Change in response [28]: 8%

CN(C)CCc1c[nH]c2ccc3c(c12)OCO3
Change in response [16]: 5%
Change in response [29]: 5%
Change in response [30]: 3%
Change in response [18]: 5%
Change in response [31]: 3%
Change in response [19]: 0%
Change in response [21]: 11%
Change in response [22]: 20%
Change in response [24]: 5%
Change in response [25]: 10%
Change in response [26]: 31%
Change in response [28]: 5%

CSc1ccc2[nH]cc(CCN(C)C)c2c1
Change in response [16]: 16%
IC50 [2]: 1.44e-7 M l-1
IC50 [4]: 1e-6 M l-1
Change in response [18]: 7%
Change in response [19]: 13%
Hill coefficient [8]: 0.91 and 0.995
Change in response [24]: 49%
Change in response [25]: 65%
Change in response [28]: 26%

COc1ccc2c(CCN(C)C)c[nH]c2c1
Change in response [3]: 25%
Change in response [5]: 34%
Change in response [6]: 21%
Change in response [10]: 5%
Change in response [11]: 26%
Change in response [12]: 50%
Change in response [13]: 8%
Change in response [14]: 21%
Change in response [15]: 29%

CSc1cccc2[nH]cc(CCN(C(C)C)C(C)C)c12
Change in response [1]: 32%
Change in response [6]: 4%
Change in response [7]: 23%
Hill coefficient [8]: 0.7
Change in response [9]: 9%
Change in response [12]: 5%
Change in response [15]: 1%

CN(C)CCc1c[nH]c2cc3c(cc12)OCO3
Change in response [1]: 26%
Change in response [32]: 22%
IC50 [2]: 1.78e-6 M l-1
Change in response [33]: 19%
IC50 [20]: 0.0000407 M l-1
Change in response [6]: 2%
Change in response [7]: 19%
Hill coefficient [8]: 0.95 and 1.01
Change in response [9]: 9%
Change in response [12]: 11%
Change in response [34]: 41%
Change in response [15]: 9%

CC(C)N(CCc1c[nH]c2ccc3c(c12)OCO3)C(C)C
IC50 [2]: 2.88e-6 M l-1
Change in response [3]: 24%
Change in response [5]: 49%
IC50 [20]: 2.24e-6 M l-1
Hill coefficient [8]: 0.343
Change in response [10]: 74%
Change in response [11]: 38%
Change in response [13]: 11%
Change in response [14]: 28%

CSc1cccc2[nH]cc(CCN(C)C)c12
Change in response [16]: 0%
IC50 [2]: 0.0000125 M l-1
Change in response [17]: 20%
Change in response [35]: 15%
Change in response [36]: 3%
Change in response [37]: 36%
IC50 [20]: 0.000151 M l-1
Change in response [21]: 8%
Hill coefficient [8]: 0.75 and 1.01
Change in response [23]: 6%
Change in response [24]: 1%
Change in response [38]: 52%
Change in response [25]: 1%
Change in response [26]: 11%
Change in response [27]: 27%

COc1cccc2[nH]cc(CCN(C)C)c12
Change in response [16]: 9%
Change in response [18]: 2%
Change in response [19]: 0%
Change in response [21]: 10%
Change in response [22]: 7%
Change in response [24]: 6%
Change in response [25]: 25%
Change in response [26]: 27%
Change in response [28]: 2%

COc1ccc2[nH]cc(CCN(C)C)c2c1 [MEBUFOTENIN]
Change in response [16]: 6%
Change in response [21]: 19%
Change in response [22]: 9%
Change in response [24]: 5%
Change in response [25]: 11%
Change in response [26]: 26%
